The values that follow come from patent US7939536B2, “Pyrimidinylisoxazole derivatives” (Aska Pharmaceutical Co., Ltd., priority 2004, dated 2011).

This data set can be described thus: Measurement of the compounds' metabolic rate (human liver S9). The format is in vitro ADME. As to conditions: human liver S9 0.5 mg protein/mL, NADPH generating system, 1 μmol/L test compound, 37° C. for 5 minutes, LC/MS/MS. Here is the method:
(2) Measurement of the Compounds' Metabolic Rate:
Each test compound was added to potassium phosphate buffer (50 mmol/L, pH7.4) containing NADPH generating system (comprising 3.3 mmol/L MgCl2, 3.3 mmol/L glucose 6-phosphate, 1.3 mmol/L β-NADP^+ and 0.4 unit/mL glucose 6-phosphate dehydrogenase) (in which occasion the final concentration was rendered 1 μmol/L) and incubated at 37° C. for 2 minutes. After the incubation, a suspension of human liver S9(the supernatant fraction obtained by centrifuging comminuted human liver cell fluid at 9000×g) in potassium phosphate buffer was added to the system, to the final concentration of 0.5 mg protein/mL. This reaction mixture was incubated at 37° C. for 5 minutes, and to which 4 volume times the reaction mixture of acetonitrile was added, mixed, cooled with ice and centrifuged (2000×g, 10 minutes). A part of the supernatant was taken and analyzed by LC/MS/MS, to determine the remaining rate of unchanged substance in the reaction mixture. The results are shown in the following Table A, concurrently with the measured results of TNF-α production inhibition action in (1) above.
On to `O=C(Cc1ccccc1Cl)Nc1onc(-c2ccc(F)cc2)c1-c1ccncn1` [Example 5, 5-[(2-chlorophenyl)acetylamino]-3-(4-fluorophenyl)-4-(4-pyrimidinyl)isoxazole], for which the “Metabolic rate (remaining rate of unchanged substance: %)” value was determined as 5.8%. The same measure for `O=C(Cc1c(F)cccc1Cl)Nc1onc(-c2ccc(F)cc2)c1-c1ccncn1` [Example 13, 5-[(2-Chloro-6-fluorophenyl)acetylamino]-3-(4-fluorophenyl)-4-(4-pyrimidinyl)isoxazole]: 16.1%; for `O=C(Cc1ccccc1Cl)Nc1onc(-c2ccc(Cl)cc2)c1-c1ccncn1` [Example 61, 3-(4-Chlorophenyl)-5-[(2-chlorophenyl)acetylamino]-4-(4-pyrimidinyl)-isoxazole]: 53.1%; for `O=C(Cc1ccccc1Cl)Nc1onc(-c2ccc(F)cc2F)c1-c1ccncn1` [Example 105, 5-[(2-Chlorophenyl)acetylamino]-3-(2,4-difluorophenyl)-4-(4-pyrimidinyl)isoxazole]: 20.4%. The same measure for `Cc1cccc(CC(=O)Nc2onc(-c3ccc(F)cc3F)c2-c2ccncn2)c1` [Example 121, 3-(2,4-Difluorophenyl)-5-[(3-methylphenyl)acetylamino]-4-(4-pyrimidinyl)isoxazole]: 46.6%.

As to `COc1ccc(-c2noc(NC(=O)Cc3ccccc3Cl)c2-c2ccncn2)c(F)c1` [Example 174, 5-[(2-Chlorophenyl)acetylamino]-3-(2-fluoro-4-methoxyphenyl)-4-(4-pyrimidinyl)isoxazole], the “Metabolic rate (remaining rate of unchanged substance: %)” value was determined as 24.1%. Next, `Cc1cccc(-c2noc(NC(=O)Cc3ccccc3Cl)c2-c2ccncn2)c1` [Example 201, 5-[(2-Chlorophenyl)acetylamino]-3-(3-methylphenyl)-4-(4-pyrimidinyl)isoxazole]: 21.2%; `Cc1cccc(-c2noc(NC(=O)Cc3ccccc3Br)c2-c2ccncn2)c1` [Example 202, 5-[(2-Bromophenyl)acetylamino]-3-(3-methylphenyl)-4-(4-pyrimidinyl)isoxazole]: 43.6%. The same measure for `Cc1cccc(-c2noc(NC(=O)Cc3ccccc3C)c2-c2ccncn2)c1` [Example 214, 3-(3-Methylphenyl)-5-[(2-methylphenyl)acetylamino]-4-(4-pyrimidinyl)isoxazole]: 59.9%; for `Cc1cccc(CC(=O)Nc2onc(-c3cccc(C)c3)c2-c2ccncn2)c1` [Example 215, 3-(3-Methylphenyl)-5-[(3-methylphenyl)acetylamino]-4-(4-pyrimidinyl)isoxazole]: 38.5%. Take `Cc1ccc(F)c(-c2noc(NC(=O)Cc3ccccc3)c2-c2ccncn2)c1` [Example 224, 3-(2-Fluoro-5-methylphenyl)-5-(phenylacetylamino)-4-(4-pyrimidinyl)isoxazole]: the “Metabolic rate (remaining rate of unchanged substance: %)” value came out at 39.8%. The same measure for `COc1cccc(CC(=O)Nc2onc(-c3ccc(F)c(C)c3)c2-c2ccncn2)c1` [Example 253, 5-[(3-Methoxyphenyl)acetylamino]-3-(3-methyl-4-fluorophenyl)-4-(4-pyrimidinyl)isoxazole]: 33.1%; for `Cc1cc(-c2noc(NC(=O)Cc3ccccc3C)c2-c2ccncn2)ccc1F` [Example 257, 3-(3-Methyl-4-fluorophenyl)-5-[(2-methylphenyl)acetylamino]-4-(4-pyrimidinyl)isoxazole]: 52.6%.
